Source: patent US20220031684A1, “PROPHYLACTIC EFFICACY OF SEROTONIN 4 RECEPTOR AGONISTS AGAINST STRESS” (THE TRUSTEES OF COLUMBIA UNIVERSITY IN THE CITY OF NEW YORK, priority 2019, published 2022)

Assays:
DRN 5-HT neurons = test: In vivo electrophysiological recordings of DRN 5-HT neurons; parameters: species or system mice; conditions: RS67333 1.5 mg/kg i.p.; after vs before administration
Procedure: FIGS. 7A-7G. Acute 5-HT4 receptor stimulation induces fast anxiolytic-like effects on 5-HT function through a modulation of the mPFC in an anxious BALB/cJRj mouse strain. (7A) Before the administration of RS67333 (RS, 1.5 mg/kg), different tracks were performed to record 5-HT neurons for 30 min. At the end of this period, RS67333 was administered i.p. and 30 min after, two or three subsequent tracks were realized. (7B) Discharge frequency of DRN 5-HT neurons is assessed as mean firing rate. The number of neurons tested is indicated in each histogram (n=25 and 26 before and after RS injection for a total of n=5 mice). Data are mean±[…] of DRN 5-HT neurons determined before the administration of RS67333. (7C) Typical recordings of DRN 5-HT neurons in the different experimental conditions. Histograms in the upper panels represent the number of action potentials (APs) per 10 seconds (scale bar). […] (7E) Cortical 5-HT depletion by p-CPA pre-treatment is measured as mean 5-HT levels (n=6-8 mice per group). (7F and 7G) Anxiety is measured in the elevated plus maze (EPM) as mean time or percent time spent in the open arms (F and inset), as mean ratio ambulatory distance in open arms/total distance (7G) and as mean total ambulatory distance (inset) (n=8-11 mice per group). […]

[1] = Chronic corticosterone (CORT) model: body weight; type: in vivo, mice; conditions: male C57BL/6NTac; Flx 18 mg/kg/day in drinking water or RS-67,333 1.5 mg/kg/day in osmotic minipumps for 3 weeks prior to CORT
Procedure: This chronic CORT elevation dysregulates the hypothalamic-pituitary-adrenal axis (HPA) in a manner similar to that observed in clinical depression. The dose and duration of CORT treatment was selected based on previous studies. CORT (35 μg/ml, equivalent to about 5 mg/kg/day) dissolved in 0.45% hydroxypropyl-o-cyclodextrin (0-CD) or vehicle (VEH) (0.45% j-CD) was available ad libitum in the drinking water in opaque bottles to protect it from light. VEH- and CORT-treated water was changed every 3 days to prevent possible degradation. Contextual Fear Conditioning (CFC): A 3-shock CFC procedure was administered as previously published. Briefly, mice were placed into context A and administered 3 2-s shocks (0.75 mA) at 180 s, 240 s or 300 s following placement into context A. Mice were removed from the context 15 s following the termination of shock (at 317 s). For context retrieval, mice were placed back into context A for 300 s. Electrophysiology: Electrophysiology was conducted as previously described. Statistical Analysis: Results from data analyses are expressed as means±SEM. Alpha was set to 0.05 for all analyses. Data were analyzed using GraphPad Prism v7.0 or v8.0. For all experiments, unless otherwise noted, one- or two-way ANOVAs with repeated-measures were applied to the data as appropriate. […] Videos were scored using ANY-maze behavior tracking software (Stoelting, Wood Dale, Ill.). […]

129S6/SvEv mice = test: Novelty-suppressed feeding (NSF) after CFC; type: in vivo
Procedure: This chronic CORT elevation dysregulates the hypothalamic-pituitary-adrenal axis (HPA) in a manner similar to that observed in clinical depression. The dose and duration of CORT treatment was selected based on previous studies. CORT (35 μg/ml, equivalent to about 5 mg/kg/day) dissolved in 0.45% hydroxypropyl-o-cyclodextrin (0-CD) or vehicle (VEH) (0.45% j-CD) was available ad libitum in the drinking water in opaque bottles to protect it from light. VEH- and CORT-treated water was changed every 3 days to prevent possible degradation. Contextual Fear Conditioning (CFC): A 3-shock CFC procedure was administered as previously published. Briefly, mice were placed into context A and administered 3 2-s shocks (0.75 mA) at 180 s, 240 s or 300 s following placement into context A. Mice were removed from the context 15 s following the termination of shock (at 317 s). For context retrieval, mice were placed back into context A for 300 s. Electrophysiology: Electrophysiology was conducted as previously described. Statistical Analysis: Results from data analyses are expressed as means±SEM. Alpha was set to 0.05 for all analyses. Data were analyzed using GraphPad Prism v7.0 or v8.0. For all experiments, unless otherwise noted, one- or two-way ANOVAs with repeated-measures were applied to the data as appropriate. Significant main effects and/or interactions were followed by Fisher's PLSD post hoc analysis or unpaired t-tests. Drugs: All drugs were prepared in physiological saline and all injections were administered intraperitoneally (i.p.) in volumes of 0.1 cc per […] body weight unless otherwise noted. Fluoxetine hydrochloride (Flx): Flx (BioTrend Chemicals AG, BG197, Zurich, Germany) was administered in the drinking water (18 mg/kg/day) for 3 weeks before the start of CORT. […] (R,S)-ketamine (K): (R,S)-ketamine (Ketaset III, Ketamine HCl injection, Fort Dodge Animal Health, Fort Dodge, Iowa) was administered in a single dose at 30 mg/kg of body weight 1 week before the start of CFC. […] PF-04995274: PF-04995274 (Sigma, Catalog No. 1331782-27-4, St. Louis, Mo.) was administered a single dose at 3 or 10 mg/kg of body weight 1 week before the start of CFC. PF-04995274 was dissolved in saline using an ultrasonic homogenizer (BioLogics, Model 3000, Manassas, Va.). Osmotic minipump implantation: ALZET osmotic minipumps (Model 2004, […], 28 days) were implanted subcutaneously under isoflurane anesthesia as previously described [S2]. Osmotic minipumps were rotated under the skin two to three times per week. Behavioral Assays: All experiments were approved by the Institutional Animal Care and Use Committee (IACUC) at the New York Psychiatric Institute (NYSPI). Elevated Plus Maze (EPM): Testing was performed as previously described [S3]. Briefly, the maze is a plus-cross-shaped apparatus consisting of four arms, two open and two enclosed by walls, linked by a central platform at a height of 50 cm from the floor. Mice were individually placed in the center of the maze facing an open arm and were allowed to explore the maze for 5 min. The time spent in and the number of entries into the open arms was used as an anxiety index. Videos were scored using ANY-maze behavior tracking software (Stoelting, Wood Dale, Ill.). Novelty-Suppressed Feeding: The NSF is a conflict test that elicits competing motivations: the drive to eat and the fear of venturing into the center of a brightly lit arena. The latency to feed is used as an index of anxiety-like behavior, because classical anxiolytic drugs decrease this measure. The NSF test was carried out during an 8 min period as previously described [S3]. Briefly, the testing apparatus consisted of a plastic box (50×50×20 cm), the floor of which was covered with approximately 2 cm of bedding. For 129S6/SvEv experiments, mice were food restricted for 12 h. For the C57BL/6N experiments, mice were food restricted for 24 h. […]

[2] = FIG. 3 cohort, FIG. 3M, Fisher's PLSD

**Q.** With CCCCN1CCC(CCC(=O)c2cc(Cl)c(N)cc2OC)CC1.Cl [RS-67,333, 1-(4-amino-5-chloro-2-methoxyphenyl)-3-[1(n-butyl)-4-piperidinyl]-1-propanone HCl] as the molecule, how does the “increase of the discharge frequency of DRN 5-HT neurons” value (DRN 5-HT neurons) read?
**A.** The value was 63%.

**Q.** And the “CORT-induced increase in body weight” value [1]?
**A.** The value was “attenuated”.

**Q.** What about the “p, NSF Latency of feed, Saline vs. RS67333 (10 mg/kg)” value (129S6/SvEv mice; FIG. 2M, t-test) of the same molecule?
**A.** Its value is 0.0108.

**Q.** And the “p, NSF Food Eaten (g), Saline vs. RS67333 (10 mg/kg)” value (129S6/SvEv mice; FIG. 2N, t-test)?
**A.** Its value is 0.3871.

**Q.** And the “p, NSF Body Weight, Saline vs. RS67333 (10 mg/kg)” value (129S6/SvEv mice; FIG. 2O, t-test)?
**A.** The value was 0.8829.

**Q.** And the “p, NSF Latency to feed (sec), RS67333 (1.5 mg/kg) vs. RS67333 (10 mg/kg)” value (129S6/SvEv mice; [2])?
**A.** The value was 0.0820.

**Q.** And the “p, NSF Latency to feed (sec), Saline vs. RS67333 (10 mg/kg)” value (129S6/SvEv mice; [2])?
**A.** Its value is 0.0010.

**Q.** And the “significance (* column), NSF Latency to feed (sec), Saline vs. RS67333 (1.5 mg/kg)” value (129S6/SvEv mice; FIG. 3 cohort, FIG. 3M, Fisher's PLSD, p cell empty)?
**A.** Its value is “ns”.

**Q.** And the “latency to feed (NSF)” value (129S6/SvEv mice; female 129S6/SvEv, 10 mg/kg)?
**A.** The value was “significantly reduced latency to feed”.

**Q.** What about the “latency to approach the pellet (NSF) vs saline” value (129S6/SvEv mice; male 129S6/SvEv, 10 mg/kg) of the same molecule?
**A.** Its value is “significantly reduced latency”.
